Assay results from patent EP4729537A1, “B-LACTAMASE-INHIBITING ANTIBODY AND USE THEREOF IN THE TREATMENT AND/OR PREVENTION OF INFECTIONS CAUSED BY B-LACTAMASE-PRODUCING BACTERIA” (priority 2023, dated 2024).
Where two headings read alike, the source gives them in different places.

Target: KPC-2 (UNIPROT Q9F663) from Klebsiella pneumoniae, SEQ ID NO. 32 (Klebsiella pneumoniae, UniProt Q9F663)
Settings: E. coli cells
Procedure: An in vivo assay was conducted to test the inhibitory capacity of four β-lactamases from three resistant microorganisms: BlaMab from Mycobacterium abscessus, KPC-2 (UNIPROT Q9F663) and OXA-48 (UNIPROT Q6XEC0) from Klebsiella pneumoniae, and VIM-2 (UNIPROT B8QIQ9) from Pseudomonas aeruginosa. The assay utilized BL21(DE3) strain cells of Escherichia coli transformed with the expression vector pET26b(+) along with the gene sequence of each β-lactamase. Cells successfully transformed with the vector and insert were selected using a Kanamycin resistance gene (KanR) present in the vector. The presence and orientation of the insert were confirmed using PCR and sequencing. Additionally, the pET26b(+) vector has an IPTG-inducible promoter to activate the translation of the corresponding β-lactamase. The plasmid also includes a pelB export signal directing the β-lactamase to the periplasmic space of the bacteria for the inhibition assay with Ndis (nanobodies, single-domain antibodies).
To obtain Table 4 with the enzymatic constants (Km, Vmax, Kmi, and Ki) of BlaMab-2, KPC-2, VIM-2, and OXA-48 with B2 and B5, a quantitative assay was performed using a cephalosporin analog: nitrocefin. This compound changes color from yellow to red when hydrolyzed by β-lactamase, which can be quantified by measuring absorbance at 490nm. This method was used to study the membrane permeability of the antibodies in the bacteria as well as the inhibitory effect of B2 and B5 on the activity of BlaMab, KPC-2, OXA48, and VIM-2.

Chain of KPC-2 (UNIPROT Q9F663) from Klebsiella pneumoniae, SEQ ID NO. 32 (Q9F663 25-293 limits assumed): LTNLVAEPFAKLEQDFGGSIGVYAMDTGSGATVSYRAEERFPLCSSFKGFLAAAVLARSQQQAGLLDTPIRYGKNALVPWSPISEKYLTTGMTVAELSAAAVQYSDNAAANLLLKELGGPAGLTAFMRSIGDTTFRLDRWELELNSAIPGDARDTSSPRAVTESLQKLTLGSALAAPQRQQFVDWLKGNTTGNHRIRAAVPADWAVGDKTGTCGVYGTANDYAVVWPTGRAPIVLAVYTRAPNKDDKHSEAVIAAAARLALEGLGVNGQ

O=C(Cc1cccs1)N[C@@H]1C(=O)N2C(C(=O)O)=C(/C=C/c3ccc([N+](=O)[O-])cc3[N+](=O)[O-])CS[C@H]12 [nitrocefin]
Km (read-out: Km(µM) B2, with antibody B2): 121 µM
Km (read-out: Km(µM) B5, with antibody B5): 2.19 µM
Km (read-out: Km(µM) Control without antibody, control without antibody (controls of the B2 and B5 runs)): 1.36 µM
